In experiment [1] the target is Transcriptional enhancer factor TEF-3 (Homo sapiens, UniProt Q15561). Kind of experiment: Inhibition of N-terminal His6 tagged human TEAD4-YBD (217 to 434 residues) expressed in Escherichia coli C43 (DE3) cells assessed as reduction in autopalmitoylation preincubated for 2 hrs followed by palmitoyl alkyne-coenzyme A addition and measured after 30 mins by immunoblot analysis. A general note: In western blotting, separated proteins are transferred to a membrane and probed.

In experiment [2] the target is Serine/threonine-protein kinase Nek1 (Homo sapiens) (UniProt Q96PY6). Kind of experiment: Inhibition of recombinant human NEK1 (1 to 505 residues) at 10 uM using RLGRDKYKTLRQIRQ as substrate measured after 40 mins in presence of [gamma33P]ATP by scintillation counting method relative to control.
The species named for a further experiment is Homo sapiens. Kind of experiment: Inhibition of TEAD transcriptional activity in human HCT116 cells assessed as reduction in CTGF expression by qRT-PCR analysis. Format: cell-based. (Quantitative PCR measures a nucleic acid by following its amplification.)
Experiment [3] deals with Histone acetyltransferase p300 (Homo sapiens) (UniProt Q09472). As to the kind of experiment: Displacement of [3H]-acetyl-CoA from human P300 after 60 mins by microbeta counting method.
The target in experiment [4] is Wee1-like protein kinase (Homo sapiens) (UniProt P30291). Kind of experiment: Inhibition of recombinant human Wee1 (214 to end residues) at 10 uM using LSNLYHQGKFLQTFCGSPLYRRR as substrate measured after 40 mins in presence of [gamm33P]ATP by scintillation counting method relative to control.
Wee1-like protein kinase (Homo sapiens), sequence (P30291 whole entry, looked up): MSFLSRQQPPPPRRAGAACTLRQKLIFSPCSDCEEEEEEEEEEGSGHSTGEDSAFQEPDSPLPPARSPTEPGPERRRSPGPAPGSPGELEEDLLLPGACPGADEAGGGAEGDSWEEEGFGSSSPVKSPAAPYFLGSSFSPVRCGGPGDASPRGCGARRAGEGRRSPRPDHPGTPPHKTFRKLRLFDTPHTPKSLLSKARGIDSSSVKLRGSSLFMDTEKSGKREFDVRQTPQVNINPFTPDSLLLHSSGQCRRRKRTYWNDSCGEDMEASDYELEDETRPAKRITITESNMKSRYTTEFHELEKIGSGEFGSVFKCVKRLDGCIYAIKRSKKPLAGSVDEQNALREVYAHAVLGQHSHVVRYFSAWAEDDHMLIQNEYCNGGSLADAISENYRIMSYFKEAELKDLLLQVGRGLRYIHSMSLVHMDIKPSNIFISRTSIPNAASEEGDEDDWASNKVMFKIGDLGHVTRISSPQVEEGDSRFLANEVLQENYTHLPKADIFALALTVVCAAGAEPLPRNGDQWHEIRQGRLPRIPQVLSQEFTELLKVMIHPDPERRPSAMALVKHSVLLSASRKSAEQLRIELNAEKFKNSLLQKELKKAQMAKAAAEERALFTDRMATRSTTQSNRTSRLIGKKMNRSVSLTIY

Transcriptional enhancer factor TEF-3, sequence (Q15561 whole entry, the tested form may be a part): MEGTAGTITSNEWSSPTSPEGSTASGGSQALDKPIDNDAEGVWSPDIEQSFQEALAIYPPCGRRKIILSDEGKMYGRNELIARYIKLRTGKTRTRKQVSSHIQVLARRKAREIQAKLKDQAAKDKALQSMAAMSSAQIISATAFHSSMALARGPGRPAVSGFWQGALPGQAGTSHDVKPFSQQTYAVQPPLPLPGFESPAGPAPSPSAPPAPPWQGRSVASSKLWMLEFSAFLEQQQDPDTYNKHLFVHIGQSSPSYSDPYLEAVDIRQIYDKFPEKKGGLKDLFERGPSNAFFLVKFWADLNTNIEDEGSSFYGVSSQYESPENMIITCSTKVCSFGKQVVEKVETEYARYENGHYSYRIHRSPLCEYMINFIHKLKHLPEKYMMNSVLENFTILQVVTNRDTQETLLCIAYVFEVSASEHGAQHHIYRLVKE
Histone acetyltransferase p300 (Homo sapiens), sequence (Q09472 whole entry): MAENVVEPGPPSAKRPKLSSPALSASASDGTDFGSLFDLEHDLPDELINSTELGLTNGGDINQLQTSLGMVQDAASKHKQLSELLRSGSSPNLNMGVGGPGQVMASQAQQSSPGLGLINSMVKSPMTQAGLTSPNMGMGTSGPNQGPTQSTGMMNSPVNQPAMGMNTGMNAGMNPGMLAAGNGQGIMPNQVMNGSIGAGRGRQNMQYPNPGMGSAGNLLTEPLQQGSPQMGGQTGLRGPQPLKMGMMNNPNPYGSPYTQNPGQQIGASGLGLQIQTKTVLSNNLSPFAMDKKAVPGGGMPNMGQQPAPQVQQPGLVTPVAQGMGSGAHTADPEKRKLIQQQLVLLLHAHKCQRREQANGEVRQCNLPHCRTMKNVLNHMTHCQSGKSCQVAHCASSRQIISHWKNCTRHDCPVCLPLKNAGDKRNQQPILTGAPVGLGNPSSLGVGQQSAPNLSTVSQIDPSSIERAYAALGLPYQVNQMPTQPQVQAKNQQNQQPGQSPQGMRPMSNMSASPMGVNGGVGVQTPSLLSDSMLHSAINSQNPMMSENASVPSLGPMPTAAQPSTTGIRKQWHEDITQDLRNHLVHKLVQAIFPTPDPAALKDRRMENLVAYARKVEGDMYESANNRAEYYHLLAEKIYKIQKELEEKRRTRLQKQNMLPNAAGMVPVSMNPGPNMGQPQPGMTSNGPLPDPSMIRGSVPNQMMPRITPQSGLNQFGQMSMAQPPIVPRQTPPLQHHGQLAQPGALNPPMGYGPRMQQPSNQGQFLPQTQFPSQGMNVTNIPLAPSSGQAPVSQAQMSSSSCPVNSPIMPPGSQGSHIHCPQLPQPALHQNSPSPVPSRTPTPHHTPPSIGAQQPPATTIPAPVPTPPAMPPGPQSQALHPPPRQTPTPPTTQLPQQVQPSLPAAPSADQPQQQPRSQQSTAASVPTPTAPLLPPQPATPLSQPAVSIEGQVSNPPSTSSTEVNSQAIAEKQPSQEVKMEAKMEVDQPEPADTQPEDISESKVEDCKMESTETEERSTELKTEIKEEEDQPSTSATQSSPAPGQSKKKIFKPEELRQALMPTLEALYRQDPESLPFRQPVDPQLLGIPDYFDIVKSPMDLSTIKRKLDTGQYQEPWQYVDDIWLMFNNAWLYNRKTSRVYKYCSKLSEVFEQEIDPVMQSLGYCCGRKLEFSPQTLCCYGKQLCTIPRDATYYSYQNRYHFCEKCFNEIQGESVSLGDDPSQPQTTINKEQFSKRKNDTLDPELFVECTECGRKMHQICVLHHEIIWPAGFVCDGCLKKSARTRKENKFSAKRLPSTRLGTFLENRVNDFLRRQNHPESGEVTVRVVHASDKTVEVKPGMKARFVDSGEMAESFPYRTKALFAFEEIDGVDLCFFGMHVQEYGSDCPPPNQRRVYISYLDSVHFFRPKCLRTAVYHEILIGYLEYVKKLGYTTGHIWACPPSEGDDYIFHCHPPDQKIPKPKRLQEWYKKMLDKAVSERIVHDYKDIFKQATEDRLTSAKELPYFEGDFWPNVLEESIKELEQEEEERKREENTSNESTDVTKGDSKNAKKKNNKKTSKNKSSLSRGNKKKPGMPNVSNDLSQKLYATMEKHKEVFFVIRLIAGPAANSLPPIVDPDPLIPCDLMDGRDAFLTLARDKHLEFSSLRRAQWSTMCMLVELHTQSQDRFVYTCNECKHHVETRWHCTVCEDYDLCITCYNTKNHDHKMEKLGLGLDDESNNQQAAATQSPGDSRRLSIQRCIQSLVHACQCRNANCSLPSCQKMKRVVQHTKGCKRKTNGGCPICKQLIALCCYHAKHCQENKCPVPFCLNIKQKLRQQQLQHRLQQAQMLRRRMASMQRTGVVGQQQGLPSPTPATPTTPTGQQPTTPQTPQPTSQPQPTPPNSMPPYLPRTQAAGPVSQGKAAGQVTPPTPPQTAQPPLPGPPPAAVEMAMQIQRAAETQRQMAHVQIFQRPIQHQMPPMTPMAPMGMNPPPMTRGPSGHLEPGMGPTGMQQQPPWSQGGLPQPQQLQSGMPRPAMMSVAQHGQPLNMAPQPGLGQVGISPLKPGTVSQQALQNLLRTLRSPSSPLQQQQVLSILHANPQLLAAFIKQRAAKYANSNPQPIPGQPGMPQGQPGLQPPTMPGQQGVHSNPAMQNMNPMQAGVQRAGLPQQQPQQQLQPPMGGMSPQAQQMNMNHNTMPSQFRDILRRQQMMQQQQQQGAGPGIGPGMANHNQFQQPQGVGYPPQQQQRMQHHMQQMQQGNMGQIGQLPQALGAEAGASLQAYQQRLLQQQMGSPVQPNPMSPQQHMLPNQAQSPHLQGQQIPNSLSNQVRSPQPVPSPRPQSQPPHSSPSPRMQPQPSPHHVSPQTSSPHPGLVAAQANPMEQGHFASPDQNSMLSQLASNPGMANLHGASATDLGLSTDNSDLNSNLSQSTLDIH
Serine/threonine-protein kinase Nek1 (Homo sapiens), sequence (Q96PY6 whole entry, the tested form may be a part): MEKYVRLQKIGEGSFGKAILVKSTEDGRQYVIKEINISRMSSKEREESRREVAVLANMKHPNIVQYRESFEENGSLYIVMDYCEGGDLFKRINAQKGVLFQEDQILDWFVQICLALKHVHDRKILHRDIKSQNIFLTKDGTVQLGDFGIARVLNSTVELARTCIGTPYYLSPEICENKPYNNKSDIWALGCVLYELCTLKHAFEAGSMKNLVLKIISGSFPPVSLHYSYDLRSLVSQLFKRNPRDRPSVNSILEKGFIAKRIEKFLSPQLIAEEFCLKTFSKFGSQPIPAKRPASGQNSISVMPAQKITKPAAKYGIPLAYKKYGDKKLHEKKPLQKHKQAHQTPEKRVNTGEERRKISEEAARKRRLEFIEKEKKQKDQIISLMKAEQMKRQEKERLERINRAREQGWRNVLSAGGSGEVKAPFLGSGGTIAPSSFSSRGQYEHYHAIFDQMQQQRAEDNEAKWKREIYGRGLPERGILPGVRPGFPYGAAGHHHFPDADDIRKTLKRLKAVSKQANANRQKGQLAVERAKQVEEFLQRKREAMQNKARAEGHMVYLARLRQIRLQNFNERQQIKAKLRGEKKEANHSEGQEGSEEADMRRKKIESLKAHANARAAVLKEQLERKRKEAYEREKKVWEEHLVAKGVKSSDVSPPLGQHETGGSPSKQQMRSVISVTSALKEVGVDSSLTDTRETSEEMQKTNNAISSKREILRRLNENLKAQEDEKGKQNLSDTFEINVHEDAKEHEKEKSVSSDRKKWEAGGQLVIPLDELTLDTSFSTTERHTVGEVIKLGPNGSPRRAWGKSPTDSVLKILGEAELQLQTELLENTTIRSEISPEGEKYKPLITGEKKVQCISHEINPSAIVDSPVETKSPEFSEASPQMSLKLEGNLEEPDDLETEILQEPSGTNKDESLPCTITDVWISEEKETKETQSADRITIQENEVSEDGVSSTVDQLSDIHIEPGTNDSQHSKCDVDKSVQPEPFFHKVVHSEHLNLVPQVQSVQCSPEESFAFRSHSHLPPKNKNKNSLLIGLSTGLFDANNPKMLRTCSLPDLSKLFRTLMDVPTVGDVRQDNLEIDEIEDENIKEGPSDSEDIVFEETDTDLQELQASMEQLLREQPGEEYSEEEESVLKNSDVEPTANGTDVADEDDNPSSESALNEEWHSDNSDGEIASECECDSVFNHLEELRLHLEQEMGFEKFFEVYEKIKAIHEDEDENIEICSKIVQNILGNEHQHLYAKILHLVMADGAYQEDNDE

Consider `C=CS(=O)(=O)Nc1ccc(Cc2ccc3ccccc3c2)cc1`, for which the IC50 in experiment [1] worked out at 197 nM. The inhibition was -6% in experiment [2], “Dose-dependent effect” in the experiment listed under Homo sapiens, -3% in experiment [3] and -4% in experiment [4].

Broadly, the IC50 is the concentration at which inhibition is half-maximal. By inhibition is commonly meant the change of the read-out against control, counted positive when it falls.

The values above are taken from ChEMBL document CHEMBL4376829, “Discovery and biological evaluation of vinylsulfonamide derivatives as highly potent, covalent TEAD autopalmitoylation inhibitors” (Eur J Med Chem, 2019).
